Results from patent US20170275269A1, “BENZYL SUBSTITUTED INDAZOLES AS BUB1 KINASE INHIBITORS” (Bayer Pharma Aktiengesellschaft, priority 2014, published 2017).
Read-outs that look alike come from different tables or passages of the source.

Key:
[1] = test system: HeLa human cervical tumor cells; experiment: Proliferation Assay (HeLa+Paclitaxel); details: read-out: Biological Assay 3.0: Proliferation Assay (HeLa + Paclitaxel):, 3 nM paclitaxel, 92 hours with test substance
Procedure: Proliferation Assay (HeLa+Paclitaxel):
Cultivated HeLa human cervical tumor cells (DSMZ ACC-57) were plated at a density of 3000 cells/well in a 96-well multititer plate in 200 μL of growth medium supplemented 10% fetal calf serum. After 24 hours, the cells of one plate (zero-point plate) were stained with crystal violet (see below). The medium of the other plates was supplemented with 3 nM of paclitaxel (Sigma-Aldrich) and the cells were incubated at 37° C. After 4 hours the test substances were added in various concentrations (0 μM, as well as in the range of 0.001-10 μM; the final concentration of the solvent dimethyl sulfoxide was adjusted to 0.1%) using a Hewlett-Packard HP D300 Digital Dispenser. The cells were incubated for another 92 hours at 37° C. in the presence of test substances. Cell proliferation was determined by staining the cells with crystal violet: the cells were fixed by adding 20 μL/measuring point of an 11% glutaric aldehyde solution for 15 minutes at room temperature. After three washing cycles of the fixed cells with water, the plates were dried at room temperature. The cells were stained by adding 100 μL/measuring point of a 0.1% crystal violet solution (pH 3.0). After three washing cycles of the stained cells with water, the plates were dried at room temperature. The dye was dissolved by adding 100 μL/measuring point of a 10% acetic acid solution. Absorption was determined by photometry at a wavelength of 595 nm. The change of cell number, in percent, was calculated by normalization of the measured values to the absorption values of the zero-point plate (=0%) and the absorption of the untreated (0 μm) cells (=100%). The IC50 values were determined by means of a 4 parameter fit.

[2] = biological target: T1, catalytic domain of human Bub1 (amino acids 704-1085) (Homo sapiens, UniProt O43683); experiment: Bub1 kinase assay (TR-FRET); format: biochemical
T1 construct: catalytic domain of human Bub1 (amino acids 704-1085); His6 (N); made in house; host or cells: Hi5 insect cells
Procedure: To this end, 100-fold concentrated compound solutions (in DMSO) were previously prepared by serial dilution (1:3.4) of 2 mM stocks in a clear low volume 384-well source microtiter plate (Greiner Bio-One, Frickenhausen, Germany), from which 50 nL of compounds were transferred into a black low volume test microtiter plate from the same supplier. […] The resulting mixture (5 μL final volume) was incubated at 22° C. during 60 min., and the reaction was stopped by the addition of 5 μL of an aqueous EDTA-solution (50 mM EDTA, in 100 mM HEPES pH 7.5 and 0.2% (w/v) bovine serum albumin) which also contained the TR-FRET detection reagents (0.2 μM streptavidin-XL665 [Cisbio Bioassays, Codolet, France] and 1 nM anti-phosho-Serine antibody [Merck Millipore, cat. #35-001] and 0.4 nM LANCE EU-W1024 labeled anti-mouse IgG antibody [Perkin-Elmer, product no. AD0077, alternatively a Terbium-cryptate-labeled anti-mouse IgG antibody from Cisbio Bioassays can be used]). The stopped reaction mixture was further incubated 1 h at 22° C. in order to allow the formation of complexes between peptides and detection reagents. Subsequently, the amount of product was evaluated by measurement of the resonance energy transfer from the Eu-chelate-antibody complex recognizing the Phosphoserine residue to the streptavidin-XL665 bound to the biotin moiety of the peptide. […] IC50 values were calculated by fitting the normalized inhibition data to a 4-parameter logistic equation (Minimum, Maximum, IC50, Hill; Y=Max+(Min−Max)/(1+(X/IC50)Hill)).

[3] = test system: HeLa human cervical cancer cell line; experiment: Proliferation assay (HeLa cell line)
Procedure: Cultivated tumor cells (cells were ordered from ATCC) were plated at a density of 3000 cells/well in a 96-well multititer plate in 200 μL of growth medium supplemented 10% fetal calf serum. After 24 hours, the cells of one plate (zero-point plate) were stained with crystal violet (see below), while the medium of the other plates was replaced by fresh culture medium (200 μL), to which the test substances were added in various concentrations (0 μM, as well as in the range of 0.001-10 μM; the final concentration of the solvent dimethyl sulfoxide was 0.5%). The cells were incubated for 4 days in the presence of test substances. Cell proliferation was determined by staining the cells with crystal violet: the cells were fixed by adding 20 μL/measuring point of an 11% glutaric aldehyde solution for 15 minutes at room temperature. After three washing cycles of the fixed cells with water, the plates were dried at room temperature. The cells were stained by adding 100 μL/measuring point of a 0.1% crystal violet solution (pH 3.0). After three washing cycles of the stained cells with water, the plates were dried at room temperature. The dye was dissolved by adding 100 μL/measuring point of a 10% acetic acid solution. Absorption was determined by photometry at a wavelength of 595 nm. The change of cell number, in percent, was calculated by normalization of the measured values to the absorption values of the zero-point plate (=0%) and the absorption of the untreated (0 μm) cells (=100%). The IC50 values were determined by means of a 4 parameter fit.

[4] = 10 μM ATP, 1 μM peptide substrate, read-out: Biological Assay 1: Bub1 kinase assay median IC50
[5] = Homo sapiens, 96 h, read-out: Biological Assay 2: Proliferation assay (HeLa cell line) median IC50
[6] = Homo sapiens, 96 h, read-out: Biological Assay 2: Proliferation assay (HeLa cell line) median IC50, HeLa, 4 days incubation, crystal violet

T1 sequence (O43683 704-1085): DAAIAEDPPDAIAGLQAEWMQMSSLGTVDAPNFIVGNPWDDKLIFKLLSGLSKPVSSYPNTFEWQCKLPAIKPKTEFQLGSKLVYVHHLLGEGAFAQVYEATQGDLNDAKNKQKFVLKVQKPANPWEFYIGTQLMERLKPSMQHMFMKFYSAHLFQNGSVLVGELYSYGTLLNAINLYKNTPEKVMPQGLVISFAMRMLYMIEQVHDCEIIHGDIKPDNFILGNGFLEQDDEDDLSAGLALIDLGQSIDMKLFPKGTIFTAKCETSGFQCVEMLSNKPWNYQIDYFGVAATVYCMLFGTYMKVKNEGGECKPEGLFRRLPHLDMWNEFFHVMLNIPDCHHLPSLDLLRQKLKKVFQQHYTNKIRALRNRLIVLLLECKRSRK

Row | Structure (SMILES) | IC50 [1] [nM] | IC50 [2, 4] [nM] | IC50 [3, 5] [nM] | IC50 [3, 6] [nM] | IC50 ([3]; read-out: Biological Assay 2: Proliferation assay (HeLa cell line) median IC50, 4 days incubation, crystal violet) [nM] | IC50 [2] [nM]
1 | CCOc1cc(F)c(Cn2nc(-c3ncc(OCCCN4CCN(C)CC4)c(Nc4ccncn4)n3)c3ccccc32)c(F)c1 [Example 2-1-6, 2-[1-(4-ethoxy-2,6-difluorobenzyl)-1H-indazol-3-yl]-5-[3-(4-methylpiperazin-1-yl)propoxy]-N-(pyrimidin-4-yl)pyrimidin-4-amine] | 860 | 9.6 | 1100 |  |  | 
2 | CCOc1cc(F)c(Cn2nc(-c3ncc(OCCCN4CCN(C)CC4)c(Nc4cc(C)ncc4C)n3)c3ccccc32)c(F)c1 [Example 2-1-10, N-(2,5-dimethylpyridin-4-yl)-2-[1-(4-ethoxy-2,6-difluorobenzyl)-1H-indazol-3-yl]-5-[3-(4-methylpiperazin-1-yl)propoxy]pyrimidin-4-amine] | 160 | 250 | 550 |  |  | 
3 | Fc1cc(OCC2CC2)cc(F)c1Cn1nc(-c2ncc(OCCCN3CCOCC3)c(Nc3ccncc3Cl)n2)c2ccccc21 [Example 2-1-2, N-(3-chloropyridin-4-yl)-2-{1-[4-(cyclopropylmethoxy)-2,6-difluorobenzyl]-1H-indazol-3-yl}-5-[3-(morpholin-4-yl)propoxy]pyrimidin-4-amine] | 760 | 50 | 5800 |  |  | 
4 | CN1CCN(CCCOc2cnc(-c3nn(Cc4c(F)cc(OCC5CC5)cc4F)c4ccccc34)nc2Nc2ccncc2Cl)CC1 [Example 2-1-1, N-(3-chloropyridin-4-yl)-2-{1-[4-(cyclopropylmethoxy)-2,6-difluorobenzyl]-1H-indazol-3-yl}-5-[3-(4-methylpiperazin-1-yl)propoxy]pyrimidin-4-amine] | 69 | 10 | 1100 |  |  | 
5 | CCOc1cc(F)c(Cn2nc(-c3ncc(OCCN4CCOCC4)c(Nc4ccncc4)n3)c3ccccc32)c(F)c1 [Example 3-1-1, 2-[1-(4-ethoxy-2,6-difluorobenzyl)-1H-indazol-3-yl]-5-[2-(morpholin-4-yl)ethoxy]-N-(pyridin-4-yl)pyrimidin-4-amine, reference compound] | 260 |  |  | 9000 | > 10000 | 
6 | CCOc1cc(F)c(Cn2nc(-c3ncc(OCCCCN4CC(F)(F)C4)c(Nc4ccncc4Cl)n3)c3ccccc32)c(F)c1 [Example 2-2-1, N-(3-chloropyridin-4-yl)-5-[4-(3,3-difluoroazetidin-1-yl)butoxy]-2-[1-(4-ethoxy-2,6-difluorobenzyl)-1H-indazol-3-yl]pyrimidin-4-amine] | 140 |  |  | 9000 |  | 19
7 | CCOc1cc(F)c(Cn2nc(-c3ncc(OCCCN4CCOCC4)c(Nc4ccnc(NC(C)=O)c4)n3)c3ccccc32)c(F)c1 [Example 2-1-3, N-[4-({2-[1-(4-ethoxy-2,6-difluorobenzyl)-1H-indazol-3-yl]-5-[3-(morpholin-4-yl)-propoxy]pyrimidin-4-yl}amino)pyridin-2-yl]acetamide] | 78 | 6.8 | 3400 |  |  | 
8 | CCOc1cc(F)c(Cn2nc(-c3ncc(OCCCN4CCN(C)CC4)c(Nc4ccnc(C)c4)n3)c3ccccc32)c(F)c1 [Example 2-1-8, 2-[1-(4-ethoxy-2,6-difluorobenzyl)-1H-indazol-3-yl]-5-[3-(4-methylpiperazin-1-yl)propoxy]-N-(2-methylpyridin-4-yl)pyrimidin-4-amine] | 370 | 28 | 1200 |  |  | 
9 | CCOc1cc(F)c(Cn2nc(-c3ncc(OC[C@H](C)NCC(F)(F)F)c(Nc4ccnc(C)n4)n3)c3ccccc32)c(F)c1 [Example 2-4-1, 2-[1-(4-ethoxy-2,6-difluorobenzyl)-1H-indazol-3-yl]-N-(2-methylpyrimidin-4-yl)-5-({(2S)-2-[(2,2,2-trifluoroethyl)amino]propyl}oxy)pyrimidin-4-amine] | 140 |  |  | 880 |  | 11
10 | CCOc1cc(F)c(Cn2nc(-c3ncc(OCCCCN4CCC(F)(F)CC4)c(Nc4ccnc(C)n4)n3)c3ccccc32)c(F)c1 [Example 2-3-4, 5-[4-(4,4-difluoropiperidin-1-yl)butoxy]-2-[1-(4-ethoxy-2,6-difluorobenzyl)-1H-indazol-3-yl]-N-(2-methylpyrimidin-4-yl)pyrimidin-4-amine] | 51 |  |  | > 10000 |  | 49
11 | Cc1cc(Nc2nc(-c3nn(Cc4c(F)cc(OCC5CC5)cc4F)c4ccccc34)ncc2OCCCN2CCOCC2)ccn1 [Example 2-1-11, 2-{1-[4-(cyclopropylmethoxy)-2,6-difluorobenzyl]-1H-indazol-3-yl}-N-(2-methylpyridin-4-yl)-5-[3-(morpholin-4-yl)propoxy]pyrimidin-4-amine] |  | 370 |  |  |  | 
12 | CCOc1cc(F)c(Cn2nc(-c3ncc(OCCCN4CCN(C)CC4)c(Nc4ccnc(C)n4)n3)c3ccccc32)c(F)c1 [Example 2-1-7, 2-[1-(4-ethoxy-2,6-difluorobenzyl)-1H-indazol-3-yl]-5-[3-(4-methylpiperazin-1-yl)propoxy]-N-(2-methylpyrimidin-4-yl)pyrimidin-4-amine] | 430 | 12 | 3700 |  |  | 
13 | CCOc1cc(F)c(Cn2nc(-c3ncc(OCCCN4CCN(CC(F)(F)F)CC4)c(Nc4ccnc(NC(C)=O)c4)n3)c3ccccc32)c(F)c1 [Example 2-1-5, N-{4-[(2-[1-(4-ethoxy-2,6-difluorobenzyl)-1H-indazol-3-yl]-5-{3-[4-(2,2,2-tri-fluoroethyl)piperazin-1-yl]propoxy}pyrimidin-4-yl)amino]pyridin-2-yl}acetamide] | 440 |  |  | > 10000 |  | 23
14 | Fc1cc(OCC(F)F)cc(F)c1Cn1nc(-c2ncc(OCCCN3CCOCC3)c(Nc3ccncn3)n2)c2ccccc21 [Example 2-1-9, 2-{1-[4-(2,2-difluoroethoxy)-2,6-difluorobenzyl]-1H-indazol-3-yl}-5-[3-(morpholin-4-yl)propoxy]-N-(pyrimidin-4-yl)pyrimidin-4-amine] | 490 | 19 | 3700 |  |  | 
15 | CCOc1cc(F)c(Cn2nc(-c3ncc(OCCCCN4CC(F)C4)c(Nc4cc(C)ncc4C)n3)c3ccccc32)c(F)c1 [Example 2-3-1, N-(2,5-dimethylpyridin-4-yl)-2-[1-(4-ethoxy-2,6-difluorobenzyl)-1H-indazol-3-yl]-5-[4-(3-fluoroazetidin-1-yl)butoxy]pyrimidin-4-amine] | 33 |  |  | 1400 |  | 39
16 | CCOc1cc(F)c(Cn2nc(-c3ncc(OCCCCN4CCC(F)(F)CC4)c(Nc4cc(C)ncc4C)n3)c3ccccc32)c(F)c1 [Example 2-3-5, 5-[4-(4,4-difluoropiperidin-1-yl)butoxy]-N-(2,5-dimethylpyridin-4-yl)-2-[1-(4-ethoxy-2,6-difluorobenzyl)-1H-indazol-3-yl]pyrimidin-4-amine] | 31 |  |  | 6800 |  | 230
17 | CCOc1cc(F)c(Cn2nc(-c3ncc(OCCCCN4CC(F)(F)C4)c(Nc4ccnc(C)n4)n3)c3ccccc32)c(F)c1 [Example 2-3-2, 5-[4-(3,3-difluoroazetidin-1-yl)butoxy]-2-[1-(4-ethoxy-2,6-difluorobenzyl)-1H-indazol-3-yl]-N-(2-methylpyrimidin-4-yl)pyrimidin-4-amine] | 26 |  |  | 9300 |  | 34
18 | CCOc1cc(F)c(Cn2nc(-c3ncc(OCCCCN4CC(F)C4)c(Nc4ccnc(C)n4)n3)c3ccccc32)c(F)c1 [Example 2-3-3, 2-[1-(4-ethoxy-2,6-difluorobenzyl)-1H-indazol-3-yl]-5-[4-(3-fluoroazetidin-1-yl)butoxy]-N-(2-methylpyrimidin-4-yl)pyrimidin-4-amine] | 23 |  |  | 3700 |  | 12
19 | CCOc1cc(F)c(Cn2nc(-c3ncc(OCCCN4CCN(C)CC4)c(Nc4ccnc(NC(C)=O)c4)n3)c3ccccc32)c(F)c1 [Example 2-1-4, N-[4-({2-[1-(4-ethoxy-2,6-difluorobenzyl)-1H-indazol-3-yl]-5-[3-(4-methylpiperazin-1-yl)propoxy]pyrimidin-4-yl}amino)pyridin-2-yl]acetamide] | 160 | 4.6 | 2000 |  |  | 
